# According to patent US20190298796A1, “Therapeutic Compositions from the Brevinin-1 Family of Peptides and Uses Thereof” (priority 2016, published 2019):
# Like-named read-outs stand apart in the source and are kept apart here. Positions of bridges follow the written chain, without caps; N, C: chain ends. Residues, ends and D or L forms follow the SMILES beside them.
# Columns and labels:
# [1] = test system: Staphylococcus aureus MTCC 9542; type: cell-based; details: lowest peptide concentration required to kill entire bacteria, 24 hrs, NA = not active up to the highest concentration tested
# Text: (§2) Antimicrobial activity: Broth dilution method [39] was used to assess the antimicrobial activity of the peptides. Bacterial strains used for in vitro antibacterial assay were Staphylococcus aureus (MTCC 9542), Bacillus subtilis (MTCC 14416), Bacillus coagulans (ATCC 7050), Methicillin-resistant Staphylococcus aureus (MRSA) (ATCC 43300), Streptococcus mutans (MTCC 497), Streptococcus gordonii (MTCC 2695), Vibrio cholerae (MCV09), Escherichia coli (ATCC 25922), Vancomycin-resistant enterococcus (VRE) (ATCC 29212) and gram-negative fish pathogens Aeromonas hydrophila (ATCC 7966) and Aeromonas sobria (ATCC 43979). Bacterial cultures were grown in Muller Hinton broth (MHB) (Hi-media) by overnight incubation at 37° C. with constant shaking. Microbial cultures having 10^6 CFU/ml were made from OD600: 0.6 cultures. 400 μM stock solutions of peptides were prepared in autoclaved double distilled water and diluted in MHB to make concentrations ranging from 0.7 to 100 μM. Bacterial inoculum without peptide was used as the negative control.
# [2] = test system: Bacillus subtilis MTCC 14416; type: cell-based; details: lowest concentration killing entire bacteria, 24 hrs
# Text: as §2
# [3] = test system: Bacillus coagulans ATCC 7050; type: cell-based; details: lowest concentration killing entire bacteria, 24 hrs
# Text: as §2
# MRSA ATCC 43300 = type: cell-based, Methicillin-resistant Staphylococcus aureus; details: lowest concentration killing entire bacteria, 24 hrs
# Text: as §2
# [4] = test system: Streptococcus mutans MTCC 497; type: cell-based; details: NA = not active up to the highest concentration tested
# Text: as §2
# [5] = test system: Streptococcus gordonii MTCC 2695; type: cell-based; details: NA = not active up to the highest concentration tested
# Text: as §2
# Vibrio cholerae MCV09 = type: cell-based; details: NA = not active up to the highest concentration tested
# Text: as §2
# E .coli. ATCC 25922 = type: cell-based, Escherichia coli
# Text: as §2
# [6] = test system: Aeromonas hydrophilia ATCC 7966; type: cell-based, Aeromonas hydrophila; details: Aeromonas hydrophilia ATCC 7966 (fish pathogen); NA = not active up to the highest concentration tested
# Text: as §2
# [7] = test system: Aeromonas sobria ATCC 43979; type: cell-based; details: Aeromonas sobria ATCC 43979 (fish pathogen); NA = not active up to the highest concentration tested
# Text: as §2
# human erythrocytes = type: cell-based; details: 60 min
# Experimental: Hemolytic Activity: Hemolytic assay was carried out as previously described. Briefly, 10% (v/v) suspensions of fresh human erythrocytes in phosphate buffered saline (pH 7.2) were incubated with different concentrations (100 μM-0.7 μM) of B1/1 COOH & B1/2 COOH, B1/1 CONH2 & B1/2 CONH2 and cyclic B1/1 CONH2 & cyclic B1/2 CONH2 and incubated at 3^7° C. for 60 min. The cells were centrifuged (3000×g) for 5 min, and absorbance of the supernatant was measured at 595 nm. Hemolysis caused by 10% Triton X-100 was taken as positive control. Percentage hemolysis was calculated by measuring the mean amount of hemoglobin released as a result of lysis of erythrocyte from three independent experiments.
# S. aureus (MTCC 9542) = test: SYTOX green uptake, confocal imaging of membrane permeation; type: cell-based, Staphylococcus aureus; details: MIC concentration, 10 min, CLSM
# Experimental: (§1) Imaging the bacterial membrane permeation by the amidated peptides. In order to find out the membrane damage by the peptides, if any, we used SYTOX green uptake assay. MIC concentrations of B1/1 CONH2 and B1/2 CONH2 were prepared in sodium phosphate buffer (10 mM, pH: 7.4). Overnight cultures of S. aureus (MTCC 9542) and V. cholerae (MCV09) were re-inoculated in fresh MHB to attain an OD600-0.6. The bacterial suspension was centrifuged (3000×g) for 5 min and the pellet was washed twice with the sodium phosphate buffer (10 mM, pH: 7.4). The pellet was resuspended in the same buffer to an OD600-0.06. Diluted culture was incubated with the peptides for 10 min at 37° C. 100 μl suspensions were poured on to poly-L-lysine coated glass slides and incubated at 37° c. for 30 minutes. The glass slides were washed twice in the same buffer to remove unattached cells. After washing 50 μl of DAPI (10 μg/ml) was smeared on the glass slide and incubated for 30 minutes at 37° C. The slides were washed twice with the buffer and SYTOX green (0.1 μM) was smeared and incubated for 15 minutes at room temperature, washed twice and dried. A drop of glycerol was placed on the slides, mounted with a cover slip and sealed. Controls were run in the presence of peptide solvents. The slides were subjected to confocal laser scanning microscopy (CLSM).
# V. cholerae (MCV09) = test: as above; type: cell-based, Vibrio cholerae; details: MIC concentration, 10 min, CLSM
# Experimental: as §1
# [8] = test system: V. cholerae cells (MCV09); test: Atomic Force Microscopy of surface morphology; type: cell-based, Vibrio cholerae; details: MIC, 15 min
# Experimental: Visualizing the changes in surface morphology of bacteria: Atomic Force Microscopy. This was incorporated to get more insights into the mechanism of action of the peptides and to confirm the results obtained from SEM. V. cholerae cells (MCV09) were grown in MHB at 37° C., washed, and suspended in sodium phosphate buffer (10 mM, pH: 7.4) (OD600-0.06). Diluted bacteria were incubated with the MICs of B1/1 CONH2 and B1/2 CONH2 for 15 min. The control sample was prepared without the peptides. Samples were prepared by drop casting 20 μL of a solution on the freshly cleaved mica surface and dried under air. AFM analyses were carried out on Multimode SPM (Veeco Nanoscope V). Imaging was done under ambient conditions in tapping mode. The probe used for imaging was antimony doped silicon cantilever with a resonant frequency of 300 kHz and a spring constant of 40 Nm^−1.
# VRE ATCC 29212 = details: lowest concentration killing entire bacteria, 24 hrs
# Text: as §2
# gram-negative bacteria = test: MIC range over the tested gram-negative bacteria; type: cell-based
# Text: as §2
# [9] = at the peptide's MIC for Aeromonas sobria ATCC 43979 (MIC in parenthesis)
# [10] = at the peptide's MIC for Staphylococcus aureus MTCC 9542 (MIC in parenthesis)
# [11] = at the peptide's MIC for Vibrio cholerae MCV09 (MIC in parenthesis)
Compound,MIC [1],MIC [2],MIC [3],MIC (MRSA ATCC 43300),MIC [4],MIC [5],MIC (Vibrio cholerae MCV09),MIC (E .coli. ATCC 25922),MIC [6],MIC [7],Percentage hemolysis at MIC (human erythrocytes; [9]),Percentage hemolysis at MIC (human erythrocytes; [10]),Percentage hemolysis at MIC (human erythrocytes; [11]),SYTOX green fluorescence signal (membrane permeabilization) (S. aureus (MTCC 9542)),SYTOX green fluorescence signal (membrane permeabilization) (V. cholerae (MCV09)),Changes in surface morphology (AFM) [8],MIC (VRE ATCC 29212),Activity against gram-negative bacteria (MIC range) (gram-negative bacteria)
CC[C@H](C)[C@H](NC(=O)CNC(=O)[C@@H]1CCCN1C(=O)[C@H](Cc1ccccc1)NC(=O)[C@@H](N)Cc1ccccc1)C(=O)N[C@H](C(=O)N[C@@H](CCCCN)C(=O)N[C@H](C(=O)N[C@@H](C)C(=O)N[C@@H](CO)C(=O)N[C@@H](C)C(=O)N[C@H](C(=O)N[C@@H](CC(C)C)C(=O)N1CCC[C@H]1C(=O)N[C@H](C(=O)N[C@@H](C)C(=O)N[C@H](C(=O)N[C@@H](CS)C(=O)N[C@@H](C)C(=O)N[C@H](C(=O)N[C@H](C(=O)N[C@@H](CCCCN)C(=O)N[C@@H](CCCNC(=N)N)C(=O)N[C@@H](CS)C(N)=O)[C@@H](C)O)[C@@H](C)CC)[C@@H](C)CC)[C@@H](C)O)[C@@H](C)CC)C(C)C)[C@@H](C)CC [B1/1 CONH2] (H-FFPGIIKVASAILPTAICAITKRC-NH2; N-terminus assumed),1.5 µM,36.3 µM,8.2 µM,2.5 µM,36 µM,19 µM,10.3 µM,29 µM,100 µM,12.5 µM,25%,10%,20%,marked increase in fluorescence signal,marked increase in fluorescence signal,changes in surface morphology and aggregation,25 µM,–
CC[C@H](C)[C@H](NC(=O)CNC(=O)[C@@H]1CCCN1C(=O)[C@H](Cc1ccccc1)NC(=O)[C@@H](N)Cc1ccccc1)C(=O)N[C@H](C(=O)N[C@@H](CCCCN)C(=O)N[C@H](C(=O)N[C@@H](C)C(=O)N[C@@H](CO)C(=O)N[C@@H](C)C(=O)N[C@H](C(=O)N[C@@H](CC(C)C)C(=O)N1CCC[C@H]1C(=O)N[C@H](C(=O)N[C@@H](C)C(=O)N[C@H](C(=O)N[C@@H](CS)C(=O)N[C@@H](C)C(=O)N[C@H](C(=O)N[C@H](C(=O)N[C@@H](CCCCN)C(=O)N[C@@H](CCCNC(=N)N)C(=O)N[C@@H](CS)C(=O)O)[C@@H](C)O)[C@@H](C)CC)[C@@H](C)CC)[C@@H](C)O)[C@@H](C)CC)C(C)C)[C@@H](C)CC [B1/1 COOH] (H-FFPGIIKVASAILPTAICAITKRC-OH; N-terminus assumed),9.5 µM,98 µM,25 µM,25 µM,–,–,–,–,–,–,–,20%,–,–,–,–,50 µM,not with gram-negative bacteria
CC[C@H](C)[C@H](NC(=O)CNC(=O)[C@@H]1CCCN1C(=O)[C@H](Cc1ccccc1)NC(=O)[C@@H](N)Cc1ccccc1)C(=O)N[C@H](C(=O)N[C@@H](CCCCN)C(=O)N[C@H](C(=O)N[C@@H](C)C(=O)N[C@@H](CO)C(=O)N[C@@H](C)C(=O)N[C@H](C(=O)N[C@@H](CC(C)C)C(=O)N1CCC[C@H]1C(=O)N[C@H](C(=O)N[C@@H](C)C(=O)N[C@H](C(=O)N[C@H]1CSSC[C@@H](C(N)=O)NC(=O)[C@H](CCCNC(=N)N)NC(=O)[C@H](CCCCN)NC(=O)[C@H]([C@@H](C)O)NC(=O)[C@H]([C@@H](C)CC)NC(=O)[C@H](C)NC1=O)[C@@H](C)CC)[C@@H](C)O)[C@@H](C)CC)C(C)C)[C@@H](C)CC [Cyclic B1/1 CONH2] (H-FFPGIIKVASAILPTAICAITKRC-NH2; disulfide 18-24; N-terminus assumed),3 µM,45 µM,25 µM,5 µM,40 µM,25 µM,12.5 µM,50 µM,100 µM,3 µM,10%,11%,20%,–,–,–,25 µM,–
CC[C@H](C)[C@H](NC(=O)CNC(=O)[C@@H]1CCCN1C(=O)[C@H](Cc1ccccc1)NC(=O)[C@@H](N)Cc1ccccc1)C(=O)N[C@H](C(=O)N[C@@H](CCCCN)C(=O)N[C@H](C(=O)N[C@@H](C)C(=O)NCC(=O)N[C@@H](C)C(=O)N[C@H](C(=O)N[C@@H](CC(C)C)C(=O)N1CCC[C@H]1C(=O)N[C@H](C(=O)N[C@@H](C)C(=O)N[C@H](C(=O)N[C@H]1CSSC[C@@H](C(N)=O)NC(=O)[C@H](CCCNC(=N)N)NC(=O)[C@H](CCCCN)NC(=O)[C@H]([C@@H](C)O)NC(=O)[C@H]([C@@H](C)CC)NC(=O)[C@H](C)NC1=O)[C@@H](C)CC)[C@@H](C)O)[C@@H](C)CC)C(C)C)[C@@H](C)CC [Cyclic B1/2 CONH2] (H-FFPGIIKVAGAILPTAICAITKRC-NH2; disulfide 18-24; N-terminus assumed),3 µM,35 µM,29 µM,7 µM,40 µM,25 µM,12.5 µM,50 µM,50 µM,3 µM,12%,15%,25%,–,–,–,30 µM,–
CC[C@H](C)[C@H](NC(=O)CNC(=O)[C@@H]1CCCN1C(=O)[C@H](Cc1ccccc1)NC(=O)[C@@H](N)Cc1ccccc1)C(=O)N[C@H](C(=O)N[C@@H](CCCCN)C(=O)N[C@H](C(=O)N[C@@H](C)C(=O)NCC(=O)N[C@@H](C)C(=O)N[C@H](C(=O)N[C@@H](CC(C)C)C(=O)N1CCC[C@H]1C(=O)N[C@H](C(=O)N[C@@H](C)C(=O)N[C@H](C(=O)N[C@@H](CS)C(=O)N[C@@H](C)C(=O)N[C@H](C(=O)N[C@H](C(=O)N[C@@H](CCCCN)C(=O)N[C@@H](CCCNC(=N)N)C(=O)N[C@@H](CS)C(N)=O)[C@@H](C)O)[C@@H](C)CC)[C@@H](C)CC)[C@@H](C)O)[C@@H](C)CC)C(C)C)[C@@H](C)CC [B1/2 CONH2] (H-FFPGIIKVAGAILPTAICAITKRC-NH2; N-terminus assumed),2.5 µM,30 µM,12.5 µM,5 µM,40 µM,25 µM,12 µM,36.2 µM,100 µM,12.5 µM,25%,8%,25%,marked increase in fluorescence signal,marked increase in fluorescence signal,changes in surface morphology and aggregation,25 µM,–
